Measured values published in patent US9199959B2, “HIV replication inhibitor” (Shionogi & Co., Ltd., priority 2011, dated 2015).

The compounds below were run on HIV (HTLV-III B strain) (assay: HIV replication inhibition assay (MTT, MT-4 cells)). Conditions: Human immunodeficiency virus 1, MT4, 96 h, four days culture, concentration at which cell cytotoxicity by virus is inhibited 50%.
Format: cell-based
Procedure: HIV (HTLV-III B strain) persistent infected human T cell strain Molt-4 clone 8 was cultured in 10% Fetal Bovine Serum-containing RPMI-1640 medium and the supernatant was filtrated, then the virus titer was measured and the solution was stored at −80° C. Each anti-human immunodeficiency virus active substance was diluted with the above cultured medium to the designated concentration, which was dispensed into 96 well micro plate by 50 μL. Next, a MT-4 cell suspended liquid was dispensed by 100 μL (2.5×10^4 cells), then the above HIV-containing supernatant diluted with the above cultured medium was added thereto by 50 μL (60 pfu (plaque forming unit)).
The obtained mixture was cultured at 37° C. in CO2 incubator for four days, then 3-(4,5-dimehylthiazole-2-yl)-2,5-diphenyltetrazolynium bromide (MTT) 5 mg/mL in PBS was added to each well by 30 μL, followed by 1 hr-cultivation. In this step, as formazan was precipitated by reduction of MTT in living cells, the cell supernatant was removed from all well by 150 μL, then a 150 μL of solution (10% Triton X-100 and […]) was added thereto, followed by shaking with a plate mixer, to elute formazan. The formazan was measured with a microreader at OD: 560 nm and 690 nm (wavelength) and the result was compared with the reference. EC50 means the compound concentration at which cell cytotoxicity by virus is inhibited 50%.
`CNc1c(C)c(C(OC(C)(C)C)C(=O)O)c(-c2ccc(C)c(C)c2)c(C)c1-c1ccc(C)c(C)c1` (centres unmarked) [Compound I-14] was tested, and the EC50 was 19 nM.
`Cc1cc(NS(=O)(=O)c2cccc3ccccc23)c(C)c(C(OC(C)(C)C)C(=O)O)c1-c1ccc2c(c1)CCCO2` (centres unmarked) [Compound I-60] showed an EC50 of 4 nM.
Compound `Cc1cc(NS(=O)(=O)c2cccc3cccnc23)c(C)c(C(OC(C)(C)C)C(=O)O)c1-c1ccc2c(c1)CCCO2` (centres unmarked) [Compound I-66] has an EC50 of 4.5 nM.
`Cc1cc(NS(=O)(=O)CC2CCCCC2)c(C)c(C(OC(C)(C)C)C(=O)O)c1-c1ccc2c(c1)CCCO2` (centres unmarked) [Compound I-82] gave an EC50 of 4.1 nM.
For `Cc1cc(NS(=O)(=O)c2cccc(Cl)c2Cl)c(C)c(C(OC(C)(C)C)C(=O)O)c1-c1ccc2c(c1)CCCO2` (centres unmarked) [Compound I-121], the EC50 was 5.2 nM.
`Cc1c(-c2c(C)c(C)c(NS(=O)(=O)c3cccc4ccccc34)c(C)c2C(OC(C)(C)C)C(=O)O)ccc2c1CCCO2` (centres unmarked) [Compound I-140] gave an EC50 of 1.9 nM.
`Cc1c(-c2c(C)c(C)c(NS(=O)(=O)c3cccc4ccccc34)c(C)c2[C@H](OC(C)(C)C)C(=O)O)ccc2c1CCCO2` [Compound I-145] showed an EC50 of 1.2 nM.
In the case of `Cc1cc(NS(=O)(=O)CC2CCCCC2)c(C)c(C(OC(C)(C)C)C(=O)O)c1-c1ccc2c(c1C)CCCO2` (centres unmarked) [Compound I-150], the EC50 is reported as 2.3 nM.
For `Cc1ccc(-c2c(C)c(C3=CCCCCC3)c(C(OC(C)(C)C)C(=O)O)c(C)c2NS(C)(=O)=O)cc1C` (centres unmarked) [Compound I-168], the EC50 was 3.9 nM.
For `Cc1ccc(-c2c(C)c(-c3ccc4c(c3C)CCCO4)c(C(OC(C)(C)C)C(=O)O)c(C)c2NS(C)(=O)=O)cc1C` (centres unmarked) [Compound I-215], the EC50 was 2.2 nM.
Work on `Cc1c(OCc2ccccc2)c(N(C)S(C)(=O)=O)c(C)c(C(OC(C)(C)C)C(=O)O)c1-c1ccc2c(c1)CCCO2` (centres unmarked) [Compound I-263] yielded an EC50 of 2.5 nM.
Work on `COc1ccc(-c2c(C)cc(NS(=O)(=O)CC3CCCCC3)c(C)c2C(OC(C)(C)C)C(=O)O)cc1` (centres unmarked) [Compound I-285] yielded an EC50 of 4.5 nM.
Work on `Cc1cc(-c2c(C)c(-c3ccc4c(c3C)CCCO4)c([C@H](OC(C)(C)C)C(=O)O)c(C)c2NS(C)(=O)=O)ccc1F` [Compound I-305] yielded an EC50 of 2 nM.
`Cc1cc(-c2c(C)c(-c3cc(F)c4c(c3C)CCCO4)c([C@H](OC(C)(C)C)C(=O)O)c(C)c2NS(C)(=O)=O)ccc1F` [Compound I-310] gave an EC50 of 4 nM.
Work on `Cc1cc2c(c(C(OC(C)(C)C)C(=O)O)c1-c1ccc3c(c1)CCCO3)CCCN2S(=O)(=O)c1cccc2ccccc12` (centres unmarked) [II-14] yielded an EC50 of 4.8 nM.
`Cc1cc2c(c(C(OC(C)(C)C)C(=O)O)c1-c1ccc3c(c1)CCCO3)CCCN2S(=O)(=O)c1cccc2cccnc12` (centres unmarked) [II-17] was tested, and the EC50 was 2.5 nM.
Work on `Cc1ccc(-c2c(C)c(-c3ccc(C)c(C)c3)c3c(c2[C@H](OC(C)(C)C)C(=O)O)CCC(=O)N3C)cc1C` [II-42] yielded an EC50 of 4.4 nM.
